Measured values published in patent publication US6602687B1, “DNA encoding human ciliary neurotrophic factor and method for producing the protein encoded thereby” (Regeneron Pharmaceuticals, Inc., priority 1989, dated 2003).

How the values were obtained:
[1] = system: chick embryonic spinal motorneurons; assay: Survival of chick embryonic spinal motorneurons in culture; format: cell-based; design: key to Survival: −: not significantly different from control (survival: 8.3 ± 3.8%, mean ± SD, n = 18); ±: about 15-20% (statistically significant from each blank control, p < 0.01); + +: about 35-55%; + ++: about 55-75%; conditions: for highest survival effect of the concentration-response curve: CNTF = recombinant rat; for Motoneuron survival (%) / Survival: after 3 days in culture; for Motoneuron survival (%): mean ± SEM (n = 4), IGF-I 1 μg/ml, Basic FGF 30 ng/ml, CNTF 1.5 ng/ml; for Survival: one concentration per molecule, Table VI, CNTF rat, rec.; for survival effect on motoneurons: supramaximal concentrations, NT-3 produced by transfected Cos-cells
Description: Motorneuron columns were dissected under a stereomicroscope from the lumbar part of the spinal cord of chick embryos on the 6th day of embryonic development and stored in cold calcium and magnesium-free Hanks balanced salt solution supplemented with glucose (4 g/l) (HBSS). The tissues were washed with HBSS and treated with 0.03% trypsin in HBSS at 37° C. for 20 min with gentle shaking, rinsed with cold HBSS and triturated mildly in 3 steps of 8-passage agitation in 1 ml of cold 0.1% soybean trypsin inhibitor (Sigma) in HBSS through a fire-polished siliconized Pasteur pipette. Each supernatant cell suspension was filtered through 50 μm-Nylon mesh, pooled and layered onto 4 ml of cold 6.8% metrizamide (Fluka) in HBSS-25 mM HEPES (pH7.4) in a 12 ml-siliconized conical glass tube. The tube was centrifuged at 400 g for 15 min at 4° C. and the intermediate layer (0.5 ml) was collected into another siliconized tube containing 6.5 ml of cold culture medium (a mixture of glucose (4 g/l)-supplemented Leibovitz's L-15 medium (Gibco), 0.15 M sodium bicarbonate, heat-inactivated and filtered horse serum and penicillin G (10^5 units/ml) at the ratio of 75:15:10:0.1, freshly prepared and buffered with 5% CO2.) After centrifugation at 100×g for 7 min at 4° C., the supernatant was removed and the cells were gently resuspended in culture medium and plated in Greiner 4-well culture dishes (well diameter, 10 mm; C. A. Greiner und Sohne GmbH, Nurtingen, West Germany) at 1000-2000 cells/well. The dishes had been precoated with poly-DL-ornithine (Sigma, 0.5 mg in 0.15 M sodium borate buffer (pH 8.3) overnight at 4° C., rinsed twice with phosphate-buffered saline (PBS) and subsequently coated with laminin (Gibco; 10 μg/ml in the serum-depleted culture medium) and placed in a 5% CO2-incubator until cell plating (5-6 hrs). Cells were incubated at 37° C. in a humidified 5% CO2- and 95% air-incubator. Samples were added one hr after plating and the culture medium changed after 24 hrs and 72 hrs. The initial cell numbers were counted 3 hrs after plating.
In some experiments motor neurons were retrogradely labeled with a fluorescent dye in vivo before cell preparation (U. Dohrman et al., 1986, Dev. Biol. 118:209-221) to identify the motor neuron cell population. A small hole was made in the shell of eggs which had been incubated for 5 days. Small pieces of rhodamine isothiocyanate crystals (Sigma) were inserted at two or three places into each hind limb thigh and the egg hole was sealed with a cellophane tape. The eggs were incubated for another 24 hrs. Some of the operated embryos were then processed for frozen sections after formaldehyde fixation. […] The other embryos were used for cell preparation using the method described above (18.1.1). After 5 hrs in culture cells were rinsed with warm HBSS, fixed with 4% formaldehyde in PBS at room temperature for 20 min, rinsed with PBS and then mounted in glycerol-PBS (1:1) with glass coverslips. Of the total cells approximately 83% were labeled and identified as motorneurons (FIG. 42.) Most of these labeled motorneurons were large cells and the rest were intermediate-size cells. No small cells were labeled. On the other hand, in experiments in which cells were not labeled with a fluorescent dye about 70% of the total cells were large phase-bright cells with round cell somas, about 20% were intermediate-size neurons (most of them may be motorneurons) and about 10% were small immature neurons (they have neuron-like processes with growth cones but have phase-dark semi-flat cell somas). Non-neuronal cells were either not present or accounted for less than 2%. Taken together, one may conclude that at least 83% of the cells are motorneurons while the remainder consists of non-labeled motorneurons, a small number of unidentified intermediate-size neurons and about 10% immature small neurons. […]

[2] = system: E8 chick ciliary ganglion neurons; assay: Survival of dissociated E8 chick ciliary ganglion neurons; format: cell-based; conditions: cultured two days with a range of peptide concentrations
Description: Ciliary neurotrophic factor activity may be evaluated using any CNTF-sensitive in vivo or in vitro system known in the art. For example, and not by way of limitation, in vitro systems have been developed which measure CNTF activity by quantitating 24-hour survival of embryonic (E8) chick ciliary ganglion (CG) neurons in monolayer cultures.
For example, ciliary ganglia may be collected from E8 chick embryos, dissociated (yielding approximately 20,000 cells per ganglion) and then diluted in HEBM medium containing 20 percent horse serum as described in Varon et al. (1979, Brain Res. 173:29-45). […] Culture plates may then be maintained at 37° C. in 5% CO2 for 24 hours, after which the cultures may be fixed by the addition of 200 μl 2 per cent glutaraldehyde in HEBM medium, and the number of surviving neurons may be determined visually by direct count under phase contrast microscopy. […]
Biological activity of recombinant CNTF was assayed on explants of chick embryo dorsal root ganglia (DRG) and dissociated cultures of ciliary ganglion (CG) neurons as described in Lindsay and Rohrer (1985, Devel. Biol 112:30-48). […] In explant cultures CNTF activity was determined by assessing the extent of fiber outgrowth in treated cultures compared to controls. Fiber outgrowth was scored on a scale of 0 to 5+, by comparing cultures to photographs of a dose-response of explanted DRG and NGF. […]

hippocampal neurons = assay: Glutamate-induced toxicity in hippocampal cultures (MTT assay); format: cell-based, rat; conditions: glutamate 1 mM for 15 minutes, MTT after 20 h
Description: FIG. 38. Protective effect of CNTF on glutamate-induced toxicity in hippocampal cultures. […] Glutamate at various concentations (100-1000 uM) was added for 15 minutes, after which the cells were cultured in the absence of glutamate or CNTF for 20 h. Survival of cells at the end of the culture period was assessed by MTT assay based on the conversion of MTT (3-(4,5-dimethylthiazol-2-yl)-2,5-diphenyl tetrazolium bromide) to a purple product by vital cells. MTT dye was added to a final concentration of 0.5 mg/ml. Dyes taken up by live cells were solubilized by the addition of 0.08N HCI in isopropranol 5 hours later, and O.D. (570-650 nm) was measured.
The effect of CNTF on GABAergic neurons was dependent on the density at which the cells were plated. […] This may be due to an elevated level of neurotrophic factors in high density cultures. […] We have assessed the neurotoxic effects of various concentrations of glutamate (10-1000 μM) by means of a calorimetric MTT assay, as shown in FIG. 38. At a concentration of 1 mM, glutamate reduced cell survival to approximately 10%. In the presence of CNTF ([…]), cell survival following exposure to glutamate was enhanced.

Compound | concentration at which the highest survival effect was obtained ([1]; 3 days in culture) [ng/mL] | highest survival effect of the concentration-response curve ([1]; 3 days in culture) [%] | Survival [1] | survival effect on motoneurons [1] | also measured
Basic FGF: basic fibroblast growth factor (human, rec.) | 30 | 51 | + + (about 35-55%) |  | Motoneuron survival (%) [1]: 51.9 ± 3.6%; EC50 ([1]; motorneuron survival, 3 days in culture): 0.26 ng/mL
Acidic FGF: acidic FGF (human, rec.) | 300 | 18 | ± (about 15-20% (statistically significant from each blank control, p < 0.01)) |  | concentration at which the highest survival effect was obtained, in the presence of 1 μg/ml heparin ([1]; 3 days in culture): 100 ng/mL; highest survival effect of the concentration-response curve, in the presence of 1 μg/ml heparin ([1]; 3 days in culture, heparin only first 24 hr): 35%
MVLLEQKIPENEADGMPATVGDGGLFEK (MVLLEQKIPENEADGMPATVGDGGLFEK) [28 amino acid synthetic peptide fragment] |  |  |  |  | neurotrophic activity (neuronal survival) [2]: A dose-response relationship was observed
PDGF |  |  | − | no discernable effect | 
N[C@@H](CCC(=O)O)C(=O)O [glutamate, reference compound] |  |  |  |  | cell survival after glutamate (hippocampal neurons): approximately 10%
IL-1β: IL-1β (human, rec.) |  |  | − | no discernable effect | 
Insulin: Insulin (bovine) | 25000 | 16 | ± (about 15-20% (statistically significant from each blank control, p < 0.01)) |  | 
Transferrin: Transferrin (human) |  |  | − |  | 
IGF-II: insulin-like growth factor II (human, rec.) | 300 | 15 | ± (about 15-20% (statistically significant from each blank control, p < 0.01)) |  | 
TGFβ1: TGFβ1 (porcine, rec.) |  |  | − | no discernable effect | 
IGF-I: insulin-like growth factor I (human, rec.) | 100 | 15 | ± (about 15-20% (statistically significant from each blank control, p < 0.01)) |  | Motoneuron survival (%) [1]: 14.5 ± 0.5 %
TGFa: TGFa (human, rec.) |  |  | − | no discernable effect | 
